Test results reported in US20110086759A1, “CHEMICAL COMPOUNDS” (SYNGENTA CROP PROTECTION, INC., priority 2007, published 2011).

Experiments:
Format in all cases: in vivo
Solanum nigrum (SOLNI) [1] = experiment: Post-emergence biological efficacy, glasshouse pot test; details: 312 h
In short: (§1)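 Scored 13 days after spraying on a 0 (no damage) to 100 (total damage) scale. Treatment was a post-emergence spray at 1000 or 250 g/ha, from acetone/water 50:50 plus 0.5% Tween 20, onto 8-day-old plants in soil pots. Growth at 24/16° C, 14 h photoperiod, 65% humidity, watered twice daily.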

[2] = tested on: Alopecurus myosuroides (ALOMY); experiment: as above; details: 312 h
In short: as §1

Setaria faberi (SETFA) [3] = experiment: as above; details: 312 h
In short: as §1

[4] = tested on: Amaranthus retoflexus (AMARE); experiment: as above; details: Amaranthus retroflexus, 312 h
In short: as §1

[5] = tested on: Ipomea hederaceae (IPOHE); experiment: as above; details: Ipomoea hederacea, 312 h
In short: as §1

[6] = tested on: Echinochloa crus-galli (ECHCG); experiment: as above; details: 312 h
In short: as §1

Solanum nigrum (SOLNI) [7] = experiment: Pre-emergence biological efficacy, glasshouse pot test; details: 312 h
In short: (§2)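 Damage was rated on a 0–100 scale 13 days after treatment, with plants kept at 24/16° C, 14 h light and 65% humidity. The pre-emergence spray, at 1000 or 250 g/ha in acetone/water 50:50 with 0.5% Tween 20, was applied one day after sowing.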

[8] = tested on: Alopecurus myosuroides (ALOMY); experiment: as above; details: 312 h
In short: as §2

Setaria faberi (SETFA) [9] = experiment: as above; details: 312 h
In short: as §2

[10] = tested on: Amaranthus retoflexus (AMARE); experiment: as above; details: Amaranthus retroflexus, 312 h
In short: as §2

[11] = tested on: Ipomea hederaceae (IPOHE); experiment: as above; details: Ipomoea hederacea, 312 h
In short: as §2

[12] = tested on: Echinochloa crus-galli (ECHCG); experiment: as above; details: 312 h
In short: as §2

[13] = Rate 1,000 g/ha, post-emergence spray, evaluated after 13 days (100=total damage to plant; 0=no damage to plant), read-out: Percentage damage caused to weed species, post-emergence, SOLNI
[14] = Rate 1,000 g/ha, post-emergence spray, evaluated after 13 days (100=total damage to plant; 0=no damage to plant), read-out: Percentage damage caused to weed species, post-emergence, ALOMY
[15] = Rate 1,000 g/ha, post-emergence spray, evaluated after 13 days (100=total damage to plant; 0=no damage to plant), read-out: Percentage damage caused to weed species, post-emergence, SETFA
[16] = Rate 1,000 g/ha, post-emergence spray, evaluated after 13 days (100=total damage to plant; 0=no damage to plant), read-out: Percentage damage caused to weed species, post-emergence, AMARE
[17] = Rate 1,000 g/ha, post-emergence spray, evaluated after 13 days (100=total damage to plant; 0=no damage to plant), read-out: Percentage damage caused to weed species, post-emergence, IPOHE
[18] = Rate 1,000 g/ha, post-emergence spray, evaluated after 13 days (100=total damage to plant; 0=no damage to plant), read-out: Percentage damage caused to weed species, post-emergence, ECHCG
[19] = pre-emergence, rate 1,000 g/ha, evaluated after 13 days (100=total damage to plant; 0=no damage), read-out: Percentage damage caused to weed species, SOLNI
[20] = pre-emergence, rate 1,000 g/ha, evaluated after 13 days (100=total damage to plant; 0=no damage), read-out: Percentage damage caused to weed species, ALOMY
[21] = pre-emergence, rate 1,000 g/ha, evaluated after 13 days (100=total damage to plant; 0=no damage), read-out: Percentage damage caused to weed species, SETFA
[22] = pre-emergence, rate 1,000 g/ha, evaluated after 13 days (100=total damage to plant; 0=no damage), read-out: Percentage damage caused to weed species, AMARE
[23] = pre-emergence, rate 1,000 g/ha, evaluated after 13 days (100=total damage to plant; 0=no damage), read-out: Percentage damage caused to weed species, IPOHE
[24] = pre-emergence, rate 1,000 g/ha, evaluated after 13 days (100=total damage to plant; 0=no damage), read-out: Percentage damage caused to weed species, ECHCG
[25] = post-emergence, 1,000 g/ha, evaluated after 13 days (100=total damage; 0=no damage), read-out: Percentage damage caused to weed species, SOLNI
[26] = post-emergence, 1,000 g/ha, evaluated after 13 days (100=total damage; 0=no damage), read-out: Percentage damage caused to weed species, ALOMY
[27] = post-emergence, 1,000 g/ha, evaluated after 13 days (100=total damage; 0=no damage), read-out: Percentage damage caused to weed species, SETFA
[28] = post-emergence, 1,000 g/ha, evaluated after 13 days (100=total damage; 0=no damage), read-out: Percentage damage caused to weed species, AMARE
[29] = post-emergence, 1,000 g/ha, evaluated after 13 days (100=total damage; 0=no damage), read-out: Percentage damage caused to weed species, IPOHE
[30] = post-emergence, 1,000 g/ha, evaluated after 13 days (100=total damage; 0=no damage), read-out: Percentage damage caused to weed species, ECHCG
[31] = pre-emergence, 1,000 g/ha, evaluated after 13 days (100=total damage; 0=no damage), read-out: Percentage damage SOLNI
[32] = pre-emergence, 1,000 g/ha, evaluated after 13 days (100=total damage; 0=no damage), read-out: Percentage damage ALOMY
[33] = pre-emergence, 1,000 g/ha, evaluated after 13 days (100=total damage; 0=no damage), read-out: Percentage damage SETFA
[34] = pre-emergence, 1,000 g/ha, evaluated after 13 days (100=total damage; 0=no damage), read-out: Percentage damage AMARE
[35] = pre-emergence, 1,000 g/ha, evaluated after 13 days (100=total damage; 0=no damage), read-out: Percentage damage IPOHE
[36] = pre-emergence, 1,000 g/ha, evaluated after 13 days (100=total damage; 0=no damage), read-out: Percentage damage ECHCG

SMILES | pest or weed control at 1000 g/ha (Solanum nigrum (SOLNI) [1]; [13]) | pest or weed control at 1000 g/ha [2, 14] | pest or weed control at 1000 g/ha (Setaria faberi (SETFA) [3]; [15]) | pest or weed control at 1000 g/ha [4, 16] | pest or weed control at 1000 g/ha [5, 17] | pest or weed control at 1000 g/ha [6, 18] | pest or weed control at 1000 g/ha (Solanum nigrum (SOLNI) [7]; [19]) | pest or weed control at 1000 g/ha [8, 20] | pest or weed control at 1000 g/ha (Solanum nigrum (SOLNI) [1]; [25]) | pest or weed control at 1000 g/ha [2, 26] | pest or weed control at 1000 g/ha (Setaria faberi (SETFA) [3]; [27]) | pest or weed control at 1000 g/ha [4, 28] | pest or weed control at 1000 g/ha [5, 29] | pest or weed control at 1000 g/ha [6, 30] | pest or weed control at 1000 g/ha (Solanum nigrum (SOLNI) [7]; [31]) | pest or weed control at 1000 g/ha [8, 32] | pest or weed control at 1000 g/ha (Setaria faberi (SETFA) [9]; [33]) | pest or weed control at 1000 g/ha [10, 34] | pest or weed control at 1000 g/ha [11, 35] | pest or weed control at 1000 g/ha [12, 36] | further results
COC(=O)c1nc(-c2cccc(OC)c2F)nc(NCc2ccco2)c1Cl [Compound 249-48, 5-Chloro-2-(2-fluoro-3-methoxyphenyl)-4-(furan-2-ylmethyl-amino)-6-methoxy-carbonylpyrimidine] | 70% | 0% | 0% | 70% | 30% | 0% | 30% | 0% | – | – | – | – | – | – | – | – | – | – | – | – | pest or weed control at 1000 g/ha (Setaria faberi (SETFA) [9]; [21]): 20%; pest or weed control at 1000 g/ha [10, 22]: 70%; pest or weed control at 1000 g/ha [11, 23]: 20%; pest or weed control at 1000 g/ha [12, 24]: 0%
CC(Nc1nc(C2CC2)nc(C(=O)O)c1Cl)c1ccc(Cl)cc1 (stereo not drawn) [Compound 1-176, 5-Chloro-4-[1-(4-chlorophenyl)ethyl-amino]-2-cyclopropyl-pyrimidine-6-carboxylic acid] | – | – | – | – | – | – | – | – | 60% | 10% | 20% | 40% | 40% | 10% | 0% | 0% | 0% | 0% | 0% | 0% | –
COC(=O)c1nc(C2CC2)nc(NCCSCc2ccccc2)c1Cl [Compound 4-262, 5-Chloro-2-cyclopropyl-6-methoxycarbonyl-4-[2-(phenylmethyl-thio)ethylamino]-pyrimidine] | – | – | – | – | – | – | – | – | 60% | 10% | 30% | 80% | 60% | 10% | 10% | 0% | 0% | 40% | 50% | 0% | –
COC(=O)c1nc(C2CC2)nc(NCC(F)c2ccc(Br)cc2F)c1Cl (stereo not drawn) [Compound 4-240, 4-[2-(4-Bromo-2-fluorophenyl)-2-fluoro-ethylamino]-5-chloro-2-cyclopropyl-6-methoxycarbonyl-pyrimidine] | – | – | – | – | – | – | – | – | 70% | 10% | 30% | 100% | 60% | 0% | 10% | 0% | 0% | 30% | 0% | 0% | –
COC(=O)c1nc(Cl)nc(NC2CC2)c1Cl [Compound 207-30, 4-Cyclopropylamino-2,5-dichloro-6-methoxycarbonyl-pyrimidine] | 10% | 10% | 0% | 0% | 20% | 0% | 0% | 0% | – | – | – | – | – | – | – | – | – | – | – | – | pest or weed control at 1000 g/ha (Setaria faberi (SETFA) [9]; [21]): 0%; pest or weed control at 1000 g/ha [10, 22]: 0%; pest or weed control at 1000 g/ha [11, 23]: 0%; pest or weed control at 1000 g/ha [12, 24]: 0%
COC(=O)c1nc(C2CC2)nc(NCc2ccc(F)cc2F)c1Cl [Compound 4-97, 5-Chloro-2-cyclopropyl-4-(2,4-difluorophenyl-methylamino)-6-methoxycarbonyl-pyrimidine] | – | – | – | – | – | – | – | – | 100% | 20% | 90% | 100% | 100% | 80% | 50% | 20% | 40% | 40% | 60% | 40% | –
COC(=O)c1nc(C2CC2)nc(NCCc2c[nH]c3ccccc23)c1Cl [Compound 4-226, 5-Chloro-2-cyclopropyl-4-[2-(indol-3-yl)ethylamino]-6-methoxycarbonyl-pyrimidine] | – | – | – | – | – | – | – | – | 80% | 30% | 50% | 100% | 60% | 10% | 60% | 0% | 0% | 70% | 100% | 10% | –
COC(=O)c1nc(C2CC2)nc(NC(CO)c2ccccc2)c1Cl (stereo not drawn) [Compound 4-203, 5-Chloro-2-cyclopropyl-4-(2-hydroxy-1-phenyl-ethylamino)-6-methoxycarbonyl-pyrimidine] | – | – | – | – | – | – | – | – | 80% | 40% | 40% | 100% | 50% | 30% | 80% | 30% | 60% | 100% | 100% | 60% | –
COC(=O)c1nc(-c2ccc(OC)cc2F)nc(NCc2ccco2)c1Cl [Compound 258-48, 5-Chloro-2-(2-fluoro-4-methoxyphenyl)-4-(furan-2-ylmethyl-amino)-6-methoxy-carbonylpyrimidine] | 50% | 10% | 40% | 90% | 30% | 0% | 0% | 30% | – | – | – | – | – | – | – | – | – | – | – | – | pest or weed control at 1000 g/ha (Setaria faberi (SETFA) [9]; [21]): 20%; pest or weed control at 1000 g/ha [10, 22]: 70%; pest or weed control at 1000 g/ha [11, 23]: 30%; pest or weed control at 1000 g/ha [12, 24]: 0%
